What was measured:
RML scrapie = settings: for prolongation of the median of the survival time versus vehicle (75% DMSO) group: daily intraperitoneal, days 102-115 post intracerebral RML infection, 125-500 nmol
[1] = tested on: PrP-Sc deposits in spleen; set-up: species or system C57Bl6 mice; settings: mouse, in vivo
[2] = tested on: PrPSc in scrapie-infected N2a (ScN2a) cells; assay: cells; assay type: cell-based, mouse; settings: for EC50: Mus musculus, ScN2a, read-out: EC50 of clearance of PrPSc from the cells; for activity against PrPSc propagation in cell culture: ScN2a cells, first screening at 15 mM (so in the source), 2 days
[3] = molecular target: association between PrPC and PrPSc (recombinant mouse PrP binding to PrP-Sc aggregates from human CJD brain) (Mus musculus, UniProt P04925); set-up: species or system mouse rPrP; human PrP-Sc; settings: for classification in primary SIFT screening: primary hit = at least approx. 50% of the effect of 17 μM DOSPA on sum of bins in green sectors 1-5; for validation in SIFT dilution series (dose-dependent inhibition): six point dilution series 0.1-100 mM (so in the source)
association between PrPC and PrPSc (recombinant mouse PrP binding to PrP-Sc aggregates from human CJD brain), sequence (P04925 23-231 limits assumed): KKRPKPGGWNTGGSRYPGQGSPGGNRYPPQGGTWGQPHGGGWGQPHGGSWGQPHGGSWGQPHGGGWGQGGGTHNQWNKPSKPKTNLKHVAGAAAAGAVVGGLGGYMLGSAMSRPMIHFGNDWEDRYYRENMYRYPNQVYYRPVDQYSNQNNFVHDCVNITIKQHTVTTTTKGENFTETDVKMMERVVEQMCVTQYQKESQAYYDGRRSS

α-synuclein = α-synuclein (Homo sapiens, UniProt P37840); assay: DMSO-induced α-synuclein aggregation in vitro (fluorescence cross-correlation and SIFT analysis); assay type: biochemical; settings: 10 μM in 1% DMSO, 3-5 h
[4] = tested on: PrPSc in scrapie-infected N2a (ScN2a) cells; settings: cell culture; cited from earlier work

Row | Structure (SMILES) | prolongation of the median of the survival time versus vehicle (75% DMSO) group (RML scrapie) | classification in primary SIFT screening [3] | validation in SIFT dilution series (dose-dependent inhibition) [3] | other results
1 | O=C(NN=Cc1ccc2ccccc2c1)c1ccc(O)c(O)c1 [293G02, 3,4-dihydroxy-N′-(naphthalen-2-ylmethylene)-benzohydrazide] | 9.5 days | primary SIFT hits | validated in SIFT dilution series | PrP-Sc deposits in spleen tissue [1]: no signs of PrP-Sc deposition could be detected; EC50 [2]: ~2 µM; activity against PrPSc propagation in cell culture [2]: strongest cell culture activity; inhibition of formation of multimeric α-synuclein complexes (α-synuclein): inhibiting the formation of multimeric α-synuclein complexes to a large extent
2 | O=C(NN=Cc1ccc2ccccc2c1)c1ccccc1O [297F03, 2-hydroxy-N′-(naphthalen-2-ylmethylene)-benzohydrazide] |  | primary SIFT hits | validated in SIFT dilution series | 
3 | O=C(NN=Cc1ccc2ccccc2c1)c1ccc(O)cc1O [301C09, 2,4-dihydroxy-N′-(naphthalen-2-ylmethylene)-benzohydrazide] |  | primary SIFT hits | validated in SIFT dilution series | 
4 | O=C(NN=Cc1ccc(Cl)cc1Cl)c1ccc(O)c(O)c1 [305E04, 3,4-dihydroxy-N′-(2,4-dichlorobenzylidene)-benzohydrazide] |  | primary SIFT hits | validated in SIFT dilution series | 
5 | O=C(NN=Cc1ccc2ccccc2c1)c1cccc(Cl)c1 [306H03, 3-chloro-N′-(naphthalen-2-ylmethylene)-benzohydrazide] |  | primary SIFT hits | validated in SIFT dilution series | 
6 | COc1ccc(C=NNC(=O)c2cccc(F)c2)cc1Br [309F02, 3-fluoro-N′-(3-bromo-4-methoxybenzylidene)-benzohydrazide] | 11.5 days | primary SIFT hits | validated in SIFT dilution series | 
7 | COc1cc(C=NN=C(N)N)ccc1OCc1c(C)c(C)c(Br)c(C)c1C [313B02, 1-(4-(4-bromo-2,3,5,6-tetramethylbenzyloxy)-3-methoxybenzylidene)-2-diaminomethylene-hydrazine] | no such prolongation | primary SIFT hits | validated in SIFT dilution series | toxic signs during treatment (RML scrapie; intraperitoneal 50 μl per day of 5 mM, reduced to 2.5 mM after day 4): toxic signs; EC50 [2]: ~6 µM
8 | CCCCCCCC/C=C\CCCCCCCCOCC(C[N+](C)(C)CCNC(=O)C(CCCNCCCN)NCCCN)OCCCCCCCC/C=C\CCCCCCCC.Cl.Cl.Cl.Cl.[Cl-] (centres unmarked) [DOSPA, reference compound] |  |  |  | inhibition of PrPSc formation in scrapie-infected mouse cells (previous finding) [4]: inhibit PrPSc formation; activity against PrPSc propagation in cell culture [2]: PrPSc is cleared from the infected cells; SIFT signal in sectors of aggregates predominantly labelled with green rPrP ([3]; 17 μM): reduced SIFT signal

— patent publication US20100029773A1 (priority 2004, published 2010)
